We go through two compounds from US20070093457A1, “Compositions for treatment of cancer and inflammation with curcumin and at least one nsaid” (priority 2004, published 2007).

Each structure is given as a SMILES string. pIC50: −log10 of the molar value.

The test system of one assay is RASFs. In words: RASF cell viability assay (XTT). The format is cell-based. Conditions: Homo sapiens, 72 hours, read-out: IC50 cell growth. As to the method:
RASFs that had been prepared from small pieces (2 mm in diameter) of human synovial tissue were grown after trypsinization in monolayers in tissue culture flasks, as known to a person skilled in the art. The synovial tissue specimens were obtained during total knee replacement surgery in patients diagnosed as having rheumatoid arthritis according to the revised criteria of the American College of Rheumatology. Synovial tissue was digested for 2 hours with 0.2% (weight/volume) bacterial collagenase and then suspended in Dulbecco's modified Eagle's medium (DMEM, Biological Industries, Israel) with 10% (volume/volume) fetal calf serum (FCS), 100 units/ml penicillin, and […] streptomycin. The cells were incubated at 37° C. in 5% CO2 for 3-5 days, after which the non-adherent cells were removed. Fibroblast-like adherent cells from the first or second passage were used as RASFs.
RASFs (1.5×10^4/well) were incubated at 37° C. in 96-well plastic plates with test drugs in DMEM containing 10% FCS in an atmosphere of 5% CO2 (fmal dimethyl sulfoxide concentration 0.1%). After 72 hours, cell viability was assessed by the ability of metabolically active cells to reduce tetrazolium salt (XTT) to colored formazan compounds. The absorbance of the samples was measured with a specific enzyme-linked immunoassay (ELISA) reader (wavelength 450 nm; reference wavelength 630 nm). […]

The test system of another assay is RASF cells. Nature of the assay: RASF apoptosis, flow-cytometric analysis.
For another assay, the system named is COX-2 mRNA. Nature of the assay: Reverse transcriptase PCR of COX-2 mRNA. The format is cell-based, human. The following applies: HT-29; selected concentrations. On the procedure: HT-29 cells were treated with the selected drugs as indicated. The mRNA was extracted, and equal amounts were transcribed to cDNA from a kit (Promega, CITY, USA). The cDNA was taken from samples at various times and used as the DNA templates for PCR. Primers used for COX-2 were: […]
GAPDH was used to ensure equal loading. […] were used as the template and […] of each primer was used for each cDNA sample. The samples went through 30 rounds of PCR. They were separated on 1% agarose gel and visualized by ethidium bromide. 7. Measurement of PGE2 Concentration

A further assay concerns COX-2. The following applies: HT-29; curcumin 10-15 μM. As to the method:
PGE2 concentration in the medium, as released by the cells, was determined by a commercially available PGE2-specific enzyme-linked immunoassay (R&D Biosystems, Abingdon, UK) according to the manufacturer's protocol.

The term pIC50 denotes −log10 of the IC50, conventionally taken in molar units.

Turning to `Cc1ccc(-c2cc(C(F)(F)F)nn2-c2ccc(S(N)(=O)=O)cc2)cc1` [celecoxib, reference compound], the pIC50 with RASFs is 4.40. Moreover, the “cell apoptosis (cells with sub-diploid DNA content)” value with RASF cells (celecoxib 20-40 μM) is on record as 4.8-19.2%.
In the case of `COc1cc(/C=C/C(=O)CC(=O)/C=C/c2ccc(O)c(OC)c2)ccc1O` [curcumin], the “COX-2 mRNA expression” value in the assay on COX-2 mRNA is recorded as “no effect”. In addition, the pIC50 in the assay on RASFs was 4.46. The “effect on PGE2 synthesis” value with COX-2 is “dose-dependent effect”. The “cell apoptosis (cells with sub-diploid DNA content)” value in the assay with RASF cells (curcumin 20 μM) is listed as 4.7%.
